Reference: patent publication US8445526B2, “Compositions and methods for treatment of glaucoma” (Glaucoma & Nasal Therapies LLC, priority 2011, dated 2013)
≈ marks a conversion by molar mass, not a printed value. Read-outs that look alike come from different tables or passages of the source.

Tests used:
[1] = tested on: α-2 over α-1 adrenergic receptors; details: binding affinity for α-2 over α-1 receptors; cited from earlier work
normotensive rabbits = details: cited from earlier work; for contralateral (nontreated eye) IOP reduction compared to the treated eye / time of peak effect: normotensive rabbits; for time of peak effect: dexmedetomidine 0.05%, brimonidine tartrate 0.10%
one eye of an individual = test: Example 3: cosmetic appearance (redness, whiteness) of the treated eye; format: in vivo, human; details: for Eye White Shade: baseline 1; for Redness: baseline 1.5
[2] = tested on: ocular hypertensive and normotensive eyes of patients; details: cited from earlier work; for equivalent reduction in normotensive human eyes: prior art formulations
normotensive eyes = details: under specific and very limited formulation conditions
[3] = tested on: normotensive (<21 mm Hg) human subject; details: after instillation
Protocol: Various formulations of α-2 agonists were unilaterally administered to a normotensive (<21 mm Hg) human subject. The subject first underwent baseline IOP testing using standard applanation tonometry via slit lamp. After fluorescein instillation, the drug was instilled as a morning dose at between about 7:00 and 9:00 AM. […] Follow up IOP checks were designed to be about 4 hours after initial instillation, where instillation consisted of 1-2 drops.

[4] = conventional brimonidine formulations

In the case of `Clc1cccc(Cl)c1N=C1NCCN1` [Clonidine], the “α2:α1” value [1] is listed as 200.
In the case of `Cc1cc(C(C)(C)C)c(O)c(C)c1CC1=NCCN1` [Oxymetazoline], the “α2:α1” value [1] is given as 50.
For `Cc1cccc([C@H](C)c2cnc[nH]2)c1C` [Dexmedetomidine], the “pressure reduction in the nontreated (contralateral) eye relative to the treated eye” value (normotensive rabbits; 0.02% in normotensive rabbits, U.S. Pat. No. 5,304,569) is listed as 100%, the pressure reduction (normotensive rabbits; 0.05% in normotensive rabbits, Vartiainen et al) is listed as 4.75 mm Hg and the “contralateral (nontreated eye) IOP reduction compared to the treated eye” value (normotensive rabbits) is listed as “about 100%”. For the same compound, the “time of peak effect” value (normotensive rabbits) was “about 2 hours”, the max soluble concentration (pH 6) was 0.195% and the “solubility” value (pH 6) was 1953 µg/mL (≈ 9750 µM). The max soluble concentration (pH 6.4) was 0.060%, the max soluble concentration (pH 7) was 0.023% and the “solubility” value (pH 7) was 224 µg/mL (≈ 1120 µM). For the same compound, the max soluble concentration (pH 7.4) was 0.015%, the max soluble concentration (pH 8) was 0.013% and the “solubility” value (pH 8) was 134 µg/mL (≈ 669 µM). The “α2:α1” value [1] was 1620, the “start of decrease in hyperemia and increase in whiteness” value (one eye of an individual; after the application) was “about 2 minutes” and the “time to maximum whiteness” value (one eye of an individual; after the application) was “about 10 minutes”. The “Eye White Shade” value (one eye of an individual; dexmedetomidine 0.010%, 4 (whitest)-1 off-white-gray/yellow) was 1, the Redness (one eye of an individual; dexmedetomidine 0.010%, scale 0 (none)-4 (reddest + chemosis)) was 1.25 and the Redness (one eye of an individual; dexmedetomidine 0.022%, scale 0-4) was 1.25. For the same compound, the “Eye White Shade” value (one eye of an individual; dexmedetomidine 0.022%, scale 4-1) was 1.25, the Redness (one eye of an individual; dexmedetomidine 0.050%, scale 0-4) was 1.0 and the “Eye White Shade” value (one eye of an individual; dexmedetomidine 0.050%, scale 4-1) was 1.5. For the same compound, the Redness (one eye of an individual; dexmedetomidine 0.10%, scale 0-4) was 0.75, the “Eye White Shade” value (one eye of an individual; dexmedetomidine 0.10%, scale 4-1) was 1.75 and the Redness (one eye of an individual; dexmedetomidine […], scale 0-4) was 1.0. The “Eye White Shade” value (one eye of an individual; dexmedetomidine […], scale 4-1) was 1.5, the “total duration of the effect (reduced hyperemia, increase in whiteness)” value (one eye of an individual; in vivo) was 3 to 5 h and the “equivalent reduction in normotensive human eyes” value [2] was “about 20%”. For the same compound, the “more effective than brimonidine by (IOP reduction vs. time)” value (normotensive eyes) was “about 200%”.
For `Brc1c(NC2=NCCN2)ccc2nccnc12` [Brimonidine], the “contralateral (nontreated eye) IOP reduction compared to the treated eye” value (normotensive rabbits) is given as “about 10%”, the “time of peak effect” value (normotensive rabbits) is given as “about 3 hours” and the “substantial local side effects” value ([2]; conjunctival hyperemia, blepharitis, allergy, edema, follicles, foreign body sensation, burning, blurring) is given as 10-25 % of users. For the same compound, the “time of peak IOP reduction effect after instillation” value ([2]; conventional brimonidine formulations, normotensive eyes) was 2 to 3 h, the “duration of IOP reduction effect of a single dose” value [2, 4] was no more than 12 h and the “peak IOP reduction effect in normotensive eyes” value [2, 4] was 15-18%. For the same compound, the “peak IOP reduction in normotensive eyes (less than 21 mm Hg)” value ([2]; human, in vivo) was 6-18%, the “peak IOP reduction in ocular hypertensive eyes” value ([2]; human, in vivo) was 20-25% and the “peak effect within (time of instillation)” value ([2]; human, in vivo) was 2 to 3 h. For the same compound, the “topical lid and conjunctival allergy, dryness, and redness” value ([2]; human, in vivo) was “over 10 % of patients”, the “users complaining of dryness” value ([2]; human, in vivo) was “more than 10%” and the rebound redness ([2]; long term use) was 20-25%. The “equivalent reduction in normotensive human eyes” value [2] was “about 20%”, the duration of effect ([2]; typically) was “less than 12 hours” and the “IOP reduction peaking at (time)” value [3] was 2 h.
In the case of `Cc1cccc(C)c1N=C1NCCCS1` [Xylazine], the “α2:α1” value [1] is listed as 160.
For `Nc1cc(Cl)c(N=C2NCCN2)c(Cl)c1` [Apraclondine], the “α2:α1” value [1] is listed as 150.
In the case of brimonidine tartrate, the “peak IOP reduction” value (normotensive rabbits; 0.10% solution in normotensive rabbits) is listed as “about 6.2 mm Hg”.
For `CC(Oc1c(Cl)cccc1Cl)C1=NCCN1` (stereo not shown) [Lofexidine], the “α2:α1” value [1] is listed as less than 300.
